Data from patent US9376425B2, “Heterocyclic compounds as MDM2 inhibitors for the treatment of cancer” (AMGEN INC., priority 2011, dated 2016).

Each compound was assayed against T1, human MDM2 (GST-hMDM2 1-188), interaction with biotinylated-p53 (1-83) (Homo sapiens, UniProt Q00987) (assay: improved HTRF assay (HTRF2 assay), inhibition of HDM2-p53 interaction). Conditions: 0.2 nM GST-hMDM2, 0.5 nM biotinylated-p53, 100 mM KF.
T1 construct: Amino acid residues 1-188 of human MDM2 were expressed; made in house; host or cells: Escherichia coli
T1 sequence (Q00987 1-188): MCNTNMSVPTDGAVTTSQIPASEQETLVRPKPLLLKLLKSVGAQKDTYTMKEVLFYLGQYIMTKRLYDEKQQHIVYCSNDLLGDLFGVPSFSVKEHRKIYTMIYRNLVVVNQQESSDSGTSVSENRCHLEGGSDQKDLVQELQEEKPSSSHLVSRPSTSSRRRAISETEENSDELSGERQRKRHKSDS
Format: binding
Procedure, shortened: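 Time-resolved fluorescence (HTRF) read after >4 h equilibration with SA-XLent/anti-GST cryptate/KF detection reagents. Reaction: compound plus GST-hMDM2 for 20 min at room temperature, then E. coli-expressed biotinylated p53 residues 1-83 for 60 min, 2% DMSO final. Inhibition expressed versus nutlin-3.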

First: CC(C)(C)S(=O)(=O)C[C@H](C1CC1)N1C(=O)[C@@H](CC(=O)O)O[C@H](c2ccc(F)c(Cl)c2)[C@H]1c1ccc(Cl)cc1 (single isomer, unassigned) [Example 321, 2-((2R,5R,6R)-4-((S)-2-(tert-Butylsulfonyl)-1-cyclopropylethyl)-6-(3-chloro-4-fluorophenyl)-5-(4-chlorophenyl)-3-oxomorpholin-2-yl)acetic acid or 2-((2S,5R,6R)-4-((S)-2-(tert-butylsulfonyl)-1-cyclopropylethyl)-6-(3-chloro-4-fluorophenyl)-5-(4-chlorophenyl)-3-oxomorpholin-2-yl)acetic acid]
Second: CC(C)(C)S(=O)(=O)C[C@H](C1CC1)N1C(=O)[C@@H](CC(=O)O)O[C@H](c2ccc(C#N)c(Cl)c2)[C@H]1c1ccc(Cl)cc1 (single isomer, unassigned) [Example 324, 2-((2R,5R,6R)-4-((S)-2-(tert-Butylsulfonyl)-1-cyclopropylethyl)-6-(3-chloro-4-cyanophenyl)-5-(4-chlorophenyl)-3-oxomorpholin-2-yl)acetic acid or 2-((2S,5R,6R)-4-((S)-2-(tert-butylsulfonyl)-1-cyclopropylethyl)-6-(3-chloro-4-cyanophenyl)-5-(4-chlorophenyl)-3-oxomorpholin-2-yl)acetic acid]
The IC50 of the first is 3.5-fold lower: 2 nM for the first, 7 nM for the second.

Compared with `CC(C)(C)SC[C@H](C1CC1)N1C(=O)[C@@H](CC(=O)O)O[C@H](c2ccc(Br)c(Cl)c2)[C@H]1c1ccc(Cl)cc1` (single isomer, unassigned) [Example 322, 2-((2R,5R,6R)-6-(4-Bromo-3-chlorophenyl)-4-((S)-2-(tert-butylthio)-1-cyclopropylethyl)-5-(4-chlorophenyl)-3-oxomorpholin-2-yl)acetic acid or 2-((2S,5R,6R)-6-(4-bromo-3-chlorophenyl)-4-((S)-2-(tert-butylthio)-1-cyclopropylethyl)-5-(4-chlorophenyl)-3-oxomorpholin-2-yl)acetic acid], `COc1ccc([C@H]2O[C@H](CC(=O)O)C(=O)N([C@H](CSC(C)(C)C)C3CC3)[C@@H]2c2ccc(Cl)cc2)cc1Cl` (single isomer, unassigned) [Example 328, 2-((2R,5R,6R)-4-((S)-2-(tert-Butylthio)-1-cyclopropylethyl)-6-(3-chloro-4-methoxyphenyl)-5-(4-chlorophenyl)-3-oxomorpholin-2-yl)acetic acid or 2-((2S,5R,6R)-4-((S)-2-(tert-butylthio)-1-cyclopropylethyl)-6-(3-chloro-4-methoxyphenyl)-5-(4-chlorophenyl)-3-oxomorpholin-2-yl)acetic acid] is 4.2-fold lower in IC50: 51 nM for the first, 12 nM for the second.

Going from `CC(C)(C)SC[C@H](C1CC1)N1C(=O)[C@@H](CC(=O)O)O[C@H](c2ccc(Br)c(Cl)c2)[C@H]1c1ccc(Cl)cc1` (single isomer, unassigned) [Example 323, 2-((2R,5R,6R)-6-(4-Bromo-3-chlorophenyl)-4-((S)-2-(tert-butylthio)-1-cyclopropylethyl)-5-(4-chlorophenyl)-3-oxomorpholin-2-yl)acetic acid or 2-((2S,5R,6R)-6-(4-bromo-3-chlorophenyl)-4-((S)-2-(tert-butylthio)-1-cyclopropylethyl)-5-(4-chlorophenyl)-3-oxomorpholin-2-yl)acetic acid] to `CC(C)(C)S(=O)(=O)C[C@H](C1CC1)N1C(=O)[C@@H](CC(=O)O)O[C@H](c2ccc(C#N)c(Cl)c2)[C@H]1c1ccc(Cl)cc1` (single isomer, unassigned) [Example 325, 2-((2R,5R,6R)-4-((S)-2-(tert-Butylsulfonyl)-1-cyclopropylethyl)-6-(3-chloro-4-cyanophenyl)-5-(4-chlorophenyl)-3-oxomorpholin-2-yl)acetic acid or 2-((2S,5R,6R)-4-((S)-2-(tert-butylsulfonyl)-1-cyclopropylethyl)-6-(3-chloro-4-cyanophenyl)-5-(4-chlorophenyl)-3-oxomorpholin-2-yl)acetic acid], the IC50 falls from 16 nM to 4 nM (4-fold).

First: CC[C@@H](CN(c1ccccc1F)S(=O)(=O)C1CC1)N1C(=O)[C@@](C)(CC(=O)O)O[C@H](c2cccc(Cl)c2)[C@H]1c1ccc(Cl)cc1 (single isomer, unassigned) [Example 329, 2-((2R,5R,6R)-6-(3-Chlorophenyl)-5-(4-chlorophenyl)-4-((S)-1-(N-(2-fluorophenyl)cyclopropanesulfonamido)butan-2-yl)-2-methyl-3-oxomorpholin-2-yl)acetic acid or 2-((2S,5R,6R)-6-(3-chlorophenyl)-5-(4-chlorophenyl)-4-((S)-1-(N-(2-fluorophenyl)cyclopropanesulfonamido)butan-2-yl)-2-methyl-3-oxomorpholin-2-yl)acetic acid]
Second: C[C@]1(CC(=O)O)O[C@H](c2cccc(Cl)c2)[C@@H](c2ccc(Cl)cc2)N([C@H](CN(c2ccccc2F)S(=O)(=O)C2CC2)C2CC2)C1=O (single isomer, unassigned) [Example 331, 2-((2R,5R,6R)-6-(3-Chlorophenyl)-5-(4-chlorophenyl)-4-((S)-1-cyclopropyl-2-(N-(2-fluorophenyl)cyclopropanesulfonamido)ethyl)-2-methyl-3-oxomorpholin-2-yl)acetic acid or 2-((2S,5R,6R)-6-(3-chlorophenyl)-5-(4-chlorophenyl)-4-((S)-1-cyclopropyl-2-(N-(2-fluorophenyl)cyclopropanesulfonamido)ethyl)-2-methyl-3-oxomorpholin-2-yl)acetic acid]
The IC50 of the first is higher: 138 nM for the first, under 1 nM for the second.

Going from `CC[C@@H](CN(c1ccccc1F)S(=O)(=O)C1CC1)N1C(=O)[C@@](C)(CC(=O)O)O[C@H](c2cccc(Cl)c2)[C@H]1c1ccc(Cl)cc1` (single isomer, unassigned) [Example 330, 2-((2R,5R,6R)-6-(3-Chlorophenyl)-5-(4-chlorophenyl)-4-((S)-1-(N-(2-fluorophenyl)cyclopropanesulfonamido)butan-2-yl)-2-methyl-3-oxomorpholin-2-yl)acetic acid or 2-((2S,5R,6R)-6-(3-chlorophenyl)-5-(4-chlorophenyl)-4-((S)-1-(N-(2-fluorophenyl)cyclopropanesulfonamido)butan-2-yl)-2-methyl-3-oxomorpholin-2-yl)acetic acid] to `C[C@]1(CC(=O)O)O[C@H](c2cccc(Cl)c2)[C@@H](c2ccc(Cl)cc2)N([C@H](CN(c2ccccc2F)S(=O)(=O)C2CC2)C2CC2)C1=O` (single isomer, unassigned) [Example 332, 2-((2R,5R,6R)-6-(3-Chlorophenyl)-5-(4-chlorophenyl)-4-((S)-1-cyclopropyl-2-(N-(2-fluorophenyl)cyclopropanesulfonamido)ethyl)-2-methyl-3-oxomorpholin-2-yl)acetic acid or 2-((2S,5R,6R)-6-(3-chlorophenyl)-5-(4-chlorophenyl)-4-((S)-1-cyclopropyl-2-(N-(2-fluorophenyl)cyclopropanesulfonamido)ethyl)-2-methyl-3-oxomorpholin-2-yl)acetic acid], the IC50 rises from 1 nM to 27 nM (27-fold). The first is the more potent here.

First: O=C(O)C[C@@]1(CC(F)(F)F)O[C@H](c2cccc(Cl)c2)[C@@H](c2ccc(Cl)cc2)N([C@H](CN(c2ccccc2F)S(=O)(=O)C2CC2)C2CC2)C1=O (single isomer, unassigned) [Example 333, 2-((2S,5R,6R)-6-(3-Chlorophenyl)-5-(4-chlorophenyl)-4-((S)-1-cyclopropyl-2-(N-(2-fluorophenyl)cyclopropanesulfonamido)ethyl)-3-oxo-2-(2,2,2-trifluoroethyl)morpholin-2-yl)acetic acid or 2-((2R,5R,6R)-6-(3-chlorophenyl)-5-(4-chlorophenyl)-4-((S)-1-cyclopropyl-2-(N-(2-fluorophenyl)cyclopropanesulfonamido)ethyl)-3-oxo-2-(2,2,2-trifluoroethyl)morpholin-2-yl)acetic acid]
Second: C[C@H]1CCCN1S(=O)(=O)C[C@H](C1CC1)N1C(=O)[C@@](C)(CC(=O)O)O[C@H](c2cccc(Cl)c2)[C@H]1c1ccc(Cl)cc1 (single isomer, unassigned) [Example 336, 2-((2R,5R,6R)-6-(3-Chlorophenyl)-5-(4-chlorophenyl)-4-((S)-1-cyclopropyl-2-(((S)-2-methylpyrrolidin-1-yl)sulfonyl)ethyl)-2-methyl-3-oxomorpholin-2-yl)acetic acid or 2-((2S,5R,6R)-6-(3-chlorophenyl)-5-(4-chlorophenyl)-4-((S)-1-cyclopropyl-2-(((S)-2-methylpyrrolidin-1-yl)sulfonyl)ethyl)-2-methyl-3-oxomorpholin-2-yl)acetic acid]
The IC50 of the first is higher: 199 nM for the first, under 1 nM for the second. The second is the more potent here.

For `CC(C)(C)S(=O)(=O)C[C@H](C1CC1)N1C(=O)[C@@](C)(CC(=O)O)O[C@H](c2cccc(Cl)c2)[C@H]1c1ccc(Cl)cc1` (single isomer, unassigned) [Example 334, 2-((2R,5R,6R)-4-((S)-2-(tert-Butylsulfonyl)-1-cyclopropylethyl)-6-(3-chlorophenyl)-5-(4-chlorophenyl)-2-methyl-3-oxomorpholin-2-yl)acetic acid or 2-((2S,5R,6R)-4-((S)-2-(tert-butylsulfonyl)-1-cyclopropylethyl)-6-(3-chlorophenyl)-5-(4-chlorophenyl)-2-methyl-3-oxomorpholin-2-yl)acetic acid], the IC50 was under 1 nM.
`CC(C)(C)S(=O)(=O)C[C@H](C1CC1)N1C(=O)[C@@](C)(CC(=O)O)O[C@H](c2cccc(Cl)c2)[C@H]1c1ccc(Cl)cc1` (single isomer, unassigned) [Example 335, 2-((2R,5R,6R)-4-((S)-2-(tert-Butylsulfonyl)-1-cyclopropylethyl)-6-(3-chlorophenyl)-5-(4-chlorophenyl)-2-methyl-3-oxomorpholin-2-yl)acetic acid or 2-((2S,5R,6R)-4-((S)-2-(tert-butylsulfonyl)-1-cyclopropylethyl)-6-(3-chlorophenyl)-5-(4-chlorophenyl)-2-methyl-3-oxomorpholin-2-yl)acetic acid] showed an IC50 of 3 nM.
